{"source": "patent US20020025537A1", "about": "“High-throughput methods for generating and screening compounds that affect cell viability” (priority 2000, published 2002)", "origin": "cited, not measured here", "key": {"[1]": {"system": "methicillin resistant S. aureus and vancomycin resistant E. faecalis", "conditions": "intravenous administration"}, "[2]": {"system": "Gram negative and Gram positive pathogenic bacteria, including strains of methicillin resistant S. aureus and vancomycin resistant E. faecalis", "conditions": "in vitro; Gram negative and Gram positive pathogens incl. MRSA and vancomycin resistant E. faecalis"}}, "note": "Bridge positions count the residues as written; N and C are the ends. Ends that are not written are not given here."}
{"substance": "protegrin-1 (RGGRLCYCRRRFCVCVGR-NH2; disulfide 8-13, 6-15; ends not checked; UniProt P32194 131-148, looked up) [PG-1, a native peptide obtained from porcine leukocytes]", "values": [{"measurement": "toxicity to the mice", "setting": "[1]", "value": "without apparent toxicity"}, {"measurement": "protection from lethal challenges", "setting": "[1]; mice, challenge with MRSA or vancomycin resistant E. faecalis", "value": "protected mice from lethal challenges"}, {"measurement": "bactericidal activity", "setting": "[2]", "value": "rapid bactericidal activity"}]}
